Laboratory results published in US9650395B2, “Antibacterial compounds and methods for use” (PTC Therapeutics, Inc., priority 2011, dated 2017).
Values after ≈ are worked out from the molar mass of the structure shown. Structures can show the parent of a compound that is named as a salt. Where two headings read alike, the source gives them in different places.

Columns and labels:
[1] = system: super sensitive Gram-negative Escherichia coli (E. coli) BAS849; test: Antibacterial activity, microbroth dilution MIC, E. coli BAS849; type: cell-based; conditions: Escherichia coli, read-out: MIC, BAS849
[2] = system: Gram-positive Staphylococcus aureus (S. aureus) 29213; test: Antibacterial activity, microbroth dilution MIC, S. aureus 29213; type: cell-based; conditions: Staphylococcus aureus; S. aureus 29213, microbroth dilution; read-out: MIC, 29213
[3] = system: control Gram-negative E. coli 25922 strain; test: Antibacterial activity, microbroth dilution MIC, E. coli 25922; type: cell-based, Escherichia coli; conditions: Escherichia coli; E. coli 25922, microbroth dilution; read-out: MIC, 25922
[4] = system: quinolone resistant E. coli LZ3111; test: Antibacterial activity, MIC, quinolone resistant E. coli LZ3111; type: cell-based, Escherichia coli; conditions: Escherichia coli, read-out: MIC, LZ3111
Text: The antibacterial activity from a microbroth dilution method may be presented as the minimum inhibitory concentration (MIC in […]). The MIC value is the lowest concentration of a drug which prevents macroscopically visible bacterial growth under test conditions.
Mutations in these regions are known to confer a high level resistance to the quinolone class of antibiotics.

[5] = E. coli BAS849, microbroth dilution

Compound | MIC [1] [µg/mL] | MIC [2] [µg/mL] | MIC [3] [µg/mL] | MIC [4] [µg/mL] | MIC [1, 5] [µg/mL]
CCc1cc(C(=O)O)c(=O)[nH]c1-c1ccc(N2C[C@H]3C[C@@H](NC)C[C@H]3C2)cc1 [Cpd 215, 5-ethyl-6-{4-[(3aR,5r,6aS)-5-(methylamino)hexahydrocyclopenta[c]pyrrol-2(1H)-yl]phenyl}-2-oxo-1,2-dihydropyridine-3-carboxylic acid trifluoroacetate] | 1 to 3.5 | 12.5 to 150 | 3.5 to 12.5 | 12.5 to 150 | 
CCc1cc(C(=O)O)c(=O)[nH]c1-c1ccc(N2C[C@H]3CC[C@@H](N(C)Cc4ccccc4)[C@H]3C2)cc1.Cl [Cpd 199, 6-{4-[(3aR,4R,6aS)-4-[benzyl(methyl)amino]hexahydrocyclopenta[c]pyrrol-2(1H)-yl]phenyl}-5-ethyl-2-oxo-1,2-dihydropyridine-3-carboxylic acid hydrochloride] |  | 3.5 to 12.5 | 3.5 to 12.5 | 12.5 to 150 | < 1
CCc1cc(C(=O)O)c(=O)[nH]c1-c1ccc(N2C[C@H]3CCC[C@@H](N(C)C)[C@H]3C2)cc1.Cl [Cpd 193, 6-{4-[(3aR,4R,7aS)-4-(dimethylamino)octahydro-2H-isoindol-2-yl]phenyl}-5-ethyl-2-oxo-1,2-dihydropyridine-3-carboxylic acid hydrochloride] |  | 12.5 to 150 | 12.5 to 150 | 12.5 to 150 | 1 to 3.5
CCc1cc(C(=O)O)c(=O)[nH]c1-c1ccc(N2CC(NC(=O)N(C)CC(=O)O)C2)cc1 [Cpd 167, 6-[4-(3-{[(carboxymethyl)(methyl)carbamoyl]amino}azetidin-1-yl)phenyl]-5-ethyl-2-oxo-1,2-dihydropyridine-3-carboxylic acid] |  | 12.5 to 150 (≈ 29.2 to 350 µM) | 12.5 to 150 (≈ 29.2 to 350 µM) | 12.5 to 150 (≈ 29.2 to 350 µM) | 1 to 3.5 (≈ 2.33 to 8.17 µM)
CCc1cc(C(=O)O)c(=O)[nH]c1-c1ccc(N2CC3CCCNC3C2)cc1.Cl (stereo not shown) [Cpd 213, 5-ethyl-6-[4-(octahydro-6H-pyrrolo[3,4-b]pyridin-6-yl)phenyl]-2-oxo-1,2-dihydropyridine-3-carboxylic acid hydrochloride] |  | 12.5 to 150 | 12.5 to 150 | 12.5 to 150 | 1 to 3.5
CCc1cc(C(=O)O)c(=O)[nH]c1-c1cc(CN2CCCCC2)n(C)c1 [Cpd 349, 5-ethyl-6-(1-methyl-5-(piperidin-1-ylmethyl)-1H-pyrrol-3-yl)-2-oxo-1,2-dihydropyridine-3-carboxylic acid] |  | 12.5 to 150 (≈ 36.4 to 437 µM) | 12.5 to 150 (≈ 36.4 to 437 µM) | 12.5 to 150 (≈ 36.4 to 437 µM) | 12.5 to 150 (≈ 36.4 to 437 µM)
CCc1cc(C(=O)O)c(=O)[nH]c1-c1ccc(CN2CCC(N(C)C)C2)n1C (stereo not shown) [Cpd 353, 6-(5-((3-(dimethylamino)pyrrolidin-1-yl)methyl)-1-methyl-1H-pyrrol-2-yl)-5-ethyl-2-oxo-1,2-dihydropyridine-3-carboxylic acid] |  | 12.5 to 150 (≈ 33.6 to 403 µM) | 12.5 to 150 (≈ 33.6 to 403 µM) | 12.5 to 150 (≈ 33.6 to 403 µM) | 12.5 to 150 (≈ 33.6 to 403 µM)
CCc1cc(C(=O)O)c(=O)[nH]c1-c1ccc(N2CCC(CNCc3cccc(F)c3)C2)cc1 (stereo not shown) [Cpd 238, 5-ethyl-6-[4-(3-{[(3-fluorobenzyl)amino]methyl}pyrrolidin-1-yl)phenyl]-2-oxo-1,2-dihydropyridine-3-carboxylic acid] |  | 12.5 to 150 (≈ 27.8 to 334 µM) | 1 to 3.5 (≈ 2.22 to 7.79 µM) | 12.5 to 150 (≈ 27.8 to 334 µM) | < 1
CCc1cc(C(=O)O)c(=O)[nH]c1-c1ccc(N2CC[C@H](O)C2=O)cc1 [Cpd 117, 5-ethyl-6-{4-[(3S)-3-hydroxy-2-oxopyrrolidin-1-yl]phenyl}-2-oxo-1,2-dihydropyridine-3-carboxylic acid] |  | 12.5 to 150 (≈ 36.5 to 438 µM) | 12.5 to 150 (≈ 36.5 to 438 µM) | 12.5 to 150 (≈ 36.5 to 438 µM) | 12.5 to 150 (≈ 36.5 to 438 µM)
CCc1c(-c2ccc(N3CCNCC3)cn2)[nH]c(=O)c(C(=O)O)c1O [Cpd 113, 5-ethyl-4-hydroxy-2-oxo-6-[5-(piperazin-1-yl)pyridin-2-yl]-1,2-dihydropyridine-3-carboxylic acid] |  | 12.5 to 150 (≈ 36.3 to 436 µM) | 3.5 to 12.5 (≈ 10.2 to 36.3 µM) | 12.5 to 150 (≈ 36.3 to 436 µM) | 3.5 to 12.5 (≈ 10.2 to 36.3 µM)
CCc1c(-c2ccc(N3C[C@H]4C[C@@H](N(Cc5ccccc5)Cc5ccccc5)C[C@H]4C3)cc2)[nH]c(=O)c(C(=O)O)c1O [Cpd 251, 6-{4-[(3aR,5r,6aS)-5-(dibenzylamino)hexahydrocyclopenta[c]pyrrol-2(1H)-yl]phenyl}-5-ethyl-4-hydroxy-2-oxo-1,2-dihydropyridine-3-carboxylic acid] |  | 12.5 to 150 (≈ 22.2 to 266 µM) | 12.5 to 150 (≈ 22.2 to 266 µM) | 12.5 to 150 (≈ 22.2 to 266 µM) | 12.5 to 150 (≈ 22.2 to 266 µM)
CCc1cc(C(=O)O)c(=O)[nH]c1-c1ccc(N2CCC(C)(N)C2)cc1.O=C(O)C(F)(F)F (stereo not shown) [Cpd 166, 6-[4-(3-amino-3-methylpyrrolidin-1-yl)phenyl]-5-ethyl-2-oxo-1,2-dihydropyridine-3-carboxylic acid trifluoroacetate] | < 1 | 12.5 to 150 | 3.5 to 12.5 | 12.5 to 150 | 
CCc1c(-c2ccc(N3CC4CC3CN4)cc2)[nH]c(=O)c(C(=O)O)c1O.O=C(O)C(F)(F)F (stereo not shown) [Cpd 295, 6-[4-(2,5-diazabicyclo[2.2.1]hept-2-yl)phenyl]-5-ethyl-4-hydroxy-2-oxo-1,2-dihydropyridine-3-carboxylic acid trifluoroacetate] | 1 to 3.5 | 12.5 to 150 | 12.5 to 150 | 12.5 to 150 | 
CCc1cc(C(=O)O)c(=O)[nH]c1-c1ccc(N2CCC(CN3CCCC3)C2)cc1 (stereo not shown) [Cpd 191, 5-ethyl-2-oxo-6-{4-[3-(pyrrolidin-1-ylmethyl)pyrrolidin-1-yl]phenyl}-1,2-dihydropyridine-3-carboxylic acid] |  | 12.5 to 150 (≈ 31.6 to 379 µM) | 1 to 3.5 (≈ 2.53 to 8.85 µM) | 12.5 to 150 (≈ 31.6 to 379 µM) | < 1
CCc1c(-c2ccc(N3CCC(N(C)C)C3)cc2F)[nH]c(=O)c(C(=O)O)c1O (stereo not shown) [Cpd 291, 6-{4-[3-(dimethylamino)pyrrolidin-1-yl]-2-fluorophenyl}-5-ethyl-4-hydroxy-2-oxo-1,2-dihydropyridine-3-carboxylic acid] |  | 12.5 to 150 (≈ 32.1 to 385 µM) | 3.5 to 12.5 (≈ 8.99 to 32.1 µM) | 12.5 to 150 (≈ 32.1 to 385 µM) | 1 to 3.5 (≈ 2.57 to 8.99 µM)
CCc1cc(C(=O)O)c(=O)[nH]c1-c1ccc(N2CCC(CNCc3ccccc3Cl)C2)cc1 (stereo not shown) [Cpd 234, 6-[4-(3-{[(2-chlorobenzyl)amino]methyl}pyrrolidin-1-yl)phenyl]-5-ethyl-2-oxo-1,2-dihydropyridine-3-carboxylic acid] |  | 12.5 to 150 (≈ 26.8 to 322 µM) | 1 to 3.5 (≈ 2.15 to 7.51 µM) | 12.5 to 150 (≈ 26.8 to 322 µM) | < 1
CC(C)c1cc(C(=O)O)c(=O)[nH]c1-c1ccc(N(C)CCN(C)C)cc1 [Cpd 165, 6-(4-{[2-(dimethylamino)ethyl](methyl)amino}phenyl)-2-oxo-5-(propan-2-yl)-1,2-dihydropyridine-3-carboxylic acid] |  | 12.5 to 150 (≈ 35 to 420 µM) | 12.5 to 150 (≈ 35 to 420 µM) | 12.5 to 150 (≈ 35 to 420 µM) | 1 to 3.5 (≈ 2.8 to 9.79 µM)
CCc1cc(C(=O)O)c(=O)[nH]c1-c1ccc(NCCN(C)C)cc1 [Cpd 159, 6-(4-{[2-(dimethylamino)ethyl]amino}phenyl)-5-ethyl-2-oxo-1,2-dihydropyridine-3-carboxylic acid] |  | 12.5 to 150 (≈ 37.9 to 455 µM) | 12.5 to 150 (≈ 37.9 to 455 µM) | 12.5 to 150 (≈ 37.9 to 455 µM) | 1 to 3.5 (≈ 3.04 to 10.6 µM)
CCc1cc(C(=O)O)c(=O)[nH]c1-c1ccc(N2C[C@H]3CCC[C@@H](N(C)Cc4ccccc4)[C@H]3C2)cc1.O=C(O)C(F)(F)F [Cpd 194, 6-(4-{(3aR,4R,7aS)-4-[benzyl(methyl)amino]octahydro-2H-isoindol-2-yl}phenyl)-5-ethyl-2-oxo-1,2-dihydropyridine-3-carboxylic acid trifluoroacetate] | 1 to 3.5 | 3.5 to 12.5 | 12.5 to 150 | 12.5 to 150 | 
